ChEMBL document CHEMBL4382259, “Synthesis of novel guttiferone E and xanthochymol derivatives with cytotoxicities by inducing cell apoptosis and arresting the cell cycle phase” (Eur J Med Chem, 2019)

How the values were obtained:
Type in all cases: functional, cell-based
[1] = tested on: HeLa; experiment: Antiproliferative activity against human HeLa cells after 72 hrs by MTT assay
[2] = tested on: MCF7; experiment: Antiproliferative activity against human MCF7 cells after 72 hrs by MTT assay; conditions: MCF7, 72 h
[3] = tested on: HEL; experiment: Antiproliferative activity against HEL cells after 72 hrs by MTT assay; conditions: Homo sapiens
[4] = tested on: A549; experiment: Antiproliferative activity against human A549 cells after 72 hrs by MTT assay; conditions: A549, 72 h
[5] = tested on: K562; experiment: Antiproliferative activity against human K562 cells after 72 hrs by MTT assay; conditions: K562, 72 h

| SMILES | IC50 [1] [µM] | IC50 [2] [µM] | IC50 [4] [µM] | IC50 [5] [µM] | IC50 [3] [µM] |
| --- | --- | --- | --- | --- | --- |
| C#CCOc1ccc(C(=O)C2=C3OC(C)(C)[C@@H](CC=C(C)C)C[C@@]34C[C@@H](CC=C(C)C)C(C)(C)[C@@](CC=C(C)C)(C2=O)C4=O)cc1O | > 20 | > 20 | > 20 | > 20 | > 20 |
| C=CC(=O)Oc1ccc(C(=O)C2=C3OC(C)(C)[C@@H](CC=C(C)C)C[C@@]34C[C@@H](CC=C(C)C)C(C)(C)[C@@](CC=C(C)C)(C2=O)C4=O)cc1OC(=O)C=C | 10.1 | 4 | 13.7 | > 20 | > 20 |
| CCCCCC(=O)Oc1cc(C(=O)C2=C3OC(C)(C)[C@@H](CC=C(C)C)C[C@@]34C[C@@H](CC=C(C)C)C(C)(C)[C@H]3CCC(C)(C)O[C@]34OC2=O)ccc1O | > 20 | 15.5 | 19.5 | 13.5 | 9.53 |
| CCCCCC(=O)Oc1ccc(C(=O)C2=C3OC(C)(C)[C@@H](CC=C(C)C)C[C@@]34C[C@@H](CC=C(C)C)C(C)(C)[C@H]3CCC(C)(C)O[C@]34OC2=O)cc1OC(=O)CCCCC | 15.4 | 16.6 | 19.2 | > 20 | 19.9 |
| CC(C)=CC[C@H]1C[C@@]23C[C@@H](CC=C(C)C)C(C)(C)[C@@](CC=C(C)C)(C(=O)C(C(=O)c4ccc(OCCCCCN5CCOCC5)c(OCCCCCN5CCOCC5)c4)=C2OC1(C)C)C3=O | 5 | > 20 | > 20 | > 20 | > 20 |
| COc1cccc2c1C(=O)c1c(O)c3c(c(O)c1C2=O)C[C@@](O)(C(=O)CO)C[C@@H]3O[C@H]1C[C@H](N)[C@H](O)[C@H](C)O1 [DOXORUBICIN] | 1.69 | 1.74 | 3.16 | 0.65 | 0.42 |

The next lines start with results.

| IC50 [1] [µM] | IC50 [2] [µM] | IC50 [4] [µM] | IC50 [5] [µM] | SMILES | IC50 [3] [µM] |
| --- | --- | --- | --- | --- | --- |
| > 20 | > 20 | > 20 | > 20 | CCCCCCCC(=O)Oc1ccc(C(=O)C2=C3OC(C)(C)[C@@H](CC=C(C)C)C[C@@]34C[C@@H](CC=C(C)C)C(C)(C)[C@H]3CCC(C)(C)O[C@]34OC2=O)cc1OC(=O)CCCCCCC | > 20 |
| 15.4 | > 20 | > 20 | > 20 | CCC(=O)Oc1ccc(C(=O)C2=C3OC(C)(C)[C@@H](CC=C(C)C)C[C@@]34C[C@@H](CC=C(C)C)C(C)(C)[C@H]3CCC(C)(C)O[C@]34OC2=O)cc1OC(=O)CC | 9.52 |
| 15.5 | 9.29 | > 20 | > 20 | CC(C)=CC[C@H]1C[C@@]23C[C@@H](CC=C(C)C)C(C)(C)[C@@](CC=C(C)C)(C(=O)C(C(=O)c4ccc(OCCCCCBr)c(O)c4)=C2OC1(C)C)C3=O | > 20 |
